Test results taken from patent publication US8952054B2, “Small molecule inhibitors of MUC1 and methods of identifying the same” (Dana-Farber Cancer Institute, Inc., priority 2010, dated 2015).

How the values were obtained:
MCF-7 cells = experiment: Cell cycle distribution and necrosis by flow cytometry, MCF-7; type: cell-based, human; settings: MCF-7, 5 μM, 3 and 4 d
Description: FIGS. 3A-D. MUC1/CQC peptide induces S phase arrest and necrosis. ZR-75-1 (FIGS. 2A-B) and MCF-7 (FIGS. 2C-D) cells were treated with 5 μM MUC1/CQC or MUC1/AQA for 3 and 4 d. Cells were fixed and analyzed for cell cycle distribution by flow cytometry (FIGS. 2A and 2C). The percentage of cells in G1, S and G2/M phases is included in the panels. Cells were also stained with propidium iodide and analyzed by flow cytometry for necrosis (FIGS. 2B and 2D). The percentage of necrotic cells is included in the panels.
Cells were harvested, washed with PBS, fixed with 80% ethanol, and incubated in PBS containing 40 μg/ml RNAse and 40 μg/ml propidium iodide for 30 min at 37° C. Cell cycle distribution was determined by flow cytometry. Sub-G1 DNA content was assessed by staining ethanol-fixed and citrate buffer-permeabilized cells with propidium iodide and monitoring by flow cytometry as described (Yin et al., 2007). For assessment of necrosis, cells were incubated with 1 μg/ml propidium iodide/PBS for 5 min at room temperature and then monitored by flow cytometry as described (Yin et al., 2007).

ZR-75-1/MUC1siRNA cells = experiment: Viable cell number by trypan blue exclusion, ZR-75-1/MUC1siRNA; type: cell-based, human; settings: 5 μM, versus ZR-75-1/vector
Description: (§1) FIGS. 4A-E. Selectivity of MUC1/CQC for MUC1 expressing breast cancer cells. (FIG. 4A) ZR-75-1 cells were stably infected with an empty lentivirus (vector) or one expressing a MUC1 siRNA. Lysates for the infected cells were immunoblotted with the indicated antibodies. (FIG. 4B) ZR-75-1/vector cells were left untreated (diamonds), and ZR-75-1/vector (squares) and ZR-75-1/MUC1 siRNA (triangles) cells were treated with 5 μM MUC1/CQC peptide for the indicated times. Viable cell number was determined by trypan blue exclusion. (FIG. 4C) 293 cells were left untreated (diamonds), and treated with 5 μM MUC1/CQC (squares) or MUC1/AQA (triangles) for the indicated times. Viable cell number was determined by trypan blue exclusion. (FIG. 4D) MCF-10A cells were left untreated (left panel), and treated with 5 μM MUC1/CQC (middle panel) or MUC1/AQA (right panel). At 3 d, cells were analyzed for cell cycle distribution. […] Viable cell number was determined by trypan blue exclusion.
(§2) Human breast cancer ZR-75-1, ZR-75-1/vector, ZR-75-1/MUC1siRNA (Ren et al., 2004) cell lines were grown in RPMI1640 medium supplemented with 10% heat-inactivated fetal bovine serum (HI-FBS), 100 U/ml penicillin, and 100 μg/ml streptomycin (Invitrogen) in a humidified incubator at 37° C. and 5% CO2. […] Viability was determined by trypan blue exclusion.

MUC1-negative 293 cells = experiment: Viable cell number by trypan blue exclusion, 293 cells; type: cell-based, human; settings: 5 μM
Description: as §1, §2

MCF-10A cells = experiment: Cell cycle distribution and growth of MCF-10A cells (peptide); type: cell-based, human; settings: 5 μM
Description: as §1
as §2, with “exclusion. […]” for “exclusion.”

HCC1937 cells = experiment: HCC1937 viability (MTS); type: cell-based, human; settings: HCC1937 (low to undetectable MUC1-C), 3 d
Description: FIGS. 16A-D—Effects of apigenin on breast cancer cells without and with endogenous MUC1 expression. (FIG. 16A) Lysates from human MCF-7, HCC1937 and BT474 cells were immunoblotted with the indicated antibodies. (FIG. 16B) BT474 cells were treated with indicated concentrations of apigenin and baicalein for 3 d, washed and then treated for an additional 3 d. Lysates were immunoblotted with the indicated antibodies. (FIG. 16C) BT474 (triangles) and HCC1937 (squares) cells were treated with apigenin for 3 d. Viable cell numbers were determined by MTS assay. The results (mean+SD of 3 determinations) are expressed as percentage of control growth in the presence of DMSO. (FIG. 16D) BT474 cells were plated at a density of 5000 cells/6 cm dish. At 24 h after seeding, DMSO or apigenin at concentrations of 25, 50 and 75 μM was added to the medium. After 2 weeks, colonies were stained with crystal violet. The results (mean+SD of 3 determinations) are expressed as percentage of control colony formation in the presence of DMSO.

CYP2C9 = CYP2C9 (Homo sapiens, UniProt P11712); settings: cited from earlier work
CYP2C9, sequence (P11712 whole entry, species assumed): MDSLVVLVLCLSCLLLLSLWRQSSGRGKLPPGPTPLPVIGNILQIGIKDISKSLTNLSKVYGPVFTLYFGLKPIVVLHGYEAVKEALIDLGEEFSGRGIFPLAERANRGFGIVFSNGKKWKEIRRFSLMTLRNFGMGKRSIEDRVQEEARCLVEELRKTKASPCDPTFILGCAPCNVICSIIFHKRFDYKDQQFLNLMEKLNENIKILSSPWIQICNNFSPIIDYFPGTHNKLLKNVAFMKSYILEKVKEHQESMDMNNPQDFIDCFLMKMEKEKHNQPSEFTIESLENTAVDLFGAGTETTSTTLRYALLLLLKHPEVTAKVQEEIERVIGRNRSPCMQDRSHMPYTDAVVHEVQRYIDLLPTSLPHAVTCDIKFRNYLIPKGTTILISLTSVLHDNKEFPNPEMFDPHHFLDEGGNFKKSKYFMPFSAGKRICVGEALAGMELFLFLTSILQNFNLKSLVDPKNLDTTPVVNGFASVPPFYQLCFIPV

SMILES | cell cycle distribution (MCF-7 cells) | necrosis (propidium iodide) (MCF-7 cells) | growth / viable cell number (ZR-75-1/MUC1siRNA cells) | growth / viable cell number (MUC1-negative 293 cells) | growth / viable cell number (MCF-10A cells) | cell cycle distribution (MCF-10A cells; 3 d) | viability (MTS) (HCC1937 cells) | inhibition of CYP2C9 (CYP2C9)
CC[C@H](C)[C@H](NC(=O)[C@H](CC(=O)O)NC(=O)[C@H](CC(C)C)NC(=O)[C@H](CCC(N)=O)NC(=O)CNC(=O)[C@H](Cc1ccc(O)cc1)NC(=O)[C@H](CC(N)=O)NC(=O)[C@H](CCCCN)NC(=O)[C@H](CCCNC(=N)N)NC(=O)[C@H](CCCNC(=N)N)NC(=O)[C@H](CS)NC(=O)[C@H](CCC(N)=O)NC(=O)[C@H](CS)NC(=O)[C@@H](CCCNC(=N)N)NC(=O)[C@@H](CCCNC(=N)N)NC(=O)[C@@H](CCCNC(=N)N)NC(=O)[C@@H](CCCNC(=N)N)NC(=O)[C@@H](CCCNC(=N)N)NC(=O)[C@@H](CCCNC(=N)N)NC(=O)[C@@H](CCCNC(=N)N)NC(=O)[C@@H](CCCNC(=N)N)NC(=O)[C@H](N)CCCNC(=N)N)C(=O)N[C@@H](Cc1ccccc1)C(=O)N1CCC[C@H]1C(=O)O [MUC1/CQC] | arrest of growth in S phase | induction of necrosis | substantially less effect | no apparent effect | no effect | no effect | – | –
O=c1cc(-c2ccc(O)cc2)oc2cc(O)cc(O)c12 [Apigenin, 4′,5,7-trihydroxyflavone] | – | – | – | – | – | – | not | potent inhibitor
